Laboratory results published in US20250129086A1, “COMPOUND FOR DEGRADING EGFR PROTEIN AND USE THEREOF” (TYK MEDICINES, INC., priority 2021, published 2025).

Legend:
Assay type in all cases: cell-based, human
[1] = system: PC-9 (EGFR exon 19 deletion); test: Cell antiproliferative assay (CTG, 72 h), PC-9; conditions: Table 2, PC-9 cells
Description: (§1) Test Example 1 Cell Antiproliferative Assay
(§2) H1975: with EGFR: L858R/T790M double mutation; PC-9 with EGFR exon 19 deletion, HCC827 with exon 19 deletion mutation. CellCounting-Lite2.0, Trypsin EDTA, 37° C. CO2 incubator, cell counter, EnVision Serial No.1050454. II. Experimental preparation:
(§3) • (A) Trypsin EDTA was used to digest log-phase cells, medium was added to terminate the reaction, and a cell suspension was made by blowing and mixing with a pipette. • (B) Cell concentration was determined using Vi-cell, and a suspension of 15,000-25,000 cells per milliliter was made depending on the purpose of the experiment and the characteristics of the cells. • (C) After the cell suspension was prepared, it was gently mixed and 100 microliters per well was added so that the density of cells to be tested was 1500-2500 per well.
(§4) • (A) About 2 mg of compound was weighed, and the volume of DMSO required was calculated according to the formula: compound mass (mg)*compound purity (%)/compound molecular weight*1000 • (B) The inoculated cell culture plates were incubated in an incubator and the compounds with concentration gradient were added after about 24 hours. • (C)10 Mm of compound stock solution was diluted to […] with medium, and 50 Mm of compound solution was added sequentially to the second column of the deep-well plate, and […] of medium containing 0.5% DMSO was added to the third to eleventh columns. • (D) Gradient dilution: 125 μl of solution was pipetted from the second column and added to the third column, after mixing; another 125 μl of solution was pipetted from the third column and added to the fourth column, and the operation was repeated until the tenth column. • (E)25 μl of compound was pipetted from the deep-well plate into a 96-well culture plate using a multichannel pipette, and each compound was repeated three times on the 96-well plate. A maximum concentration of 10,000 nm with concentration gradient of 1:4 was eventually formed on the 96-well plate.
(§5) • (A)96-well plates were incubated in an incubator for 72 h. The effect of the compounds was observed under an inverted microscope. • (B)25 μl of CTG solution was added to each well, the plate was put on shaker for 10 minutes and the […] of each well was read.
(§6) The cell viability rate (% Cell Viability) was calculated using the following formula: • % Cell Viability=100%×(Lum_Sample-Lum_LC)/(Lum_HC-Lum_LC) • Lum_HC: Cell reading of 0.1% DMSO control • Lum_Sample: Cell reading with compound added • Lum_LC: Reading of Blank media • IC50 values were obtained by curve fitting with GraphPad Prism 8 software.

[2] = system: HCC827 (exon 19 deletion mutation); test: Cell antiproliferative assay (CTG, 72 h), HCC827; conditions: Table 2, HCC827 cells
Description: as §1, §2, §3, §4, §5, §6

[3] = system: H1975 (EGFR L858R/T790M double mutation); test: Cell antiproliferative assay (CTG, 72 h), H1975; conditions: Table 2, H1975 cells
Description: as §1, §2, §3, §4, §5, §6

| SMILES | IC50 ([1]; Homo sapiens, PC-9, 72 h) [nM] | IC50 ([2]; Homo sapiens, HCC827, 72 h) [nM] | IC50 ([3]; Homo sapiens, NCI-H1975, 72 h) [nM] | further results |
| --- | --- | --- | --- | --- |
| COc1cc(N2CCN(C(=O)CN3CCC(c4ccc(NC5CCC(=O)NC5=O)cc4)CC3)CC2)ccc1Nc1ncc(Cl)c(Nc2ccccc2)n1 (stereo not drawn) [Compound T-01] | 100 to 1000 | 100 to 1000 | 10 to 100 | – |
| COc1cc(N2CCN(C(=O)CN3CCC(c4ccc(NC5CCC(=O)NC5=O)cc4)CC3)CC2)ccc1Nc1ncc(C(F)(F)F)c(Nc2ccccc2)n1 (stereo not drawn) [Compound T-02] | 100 to 1000 | ≥ 1000 | 10 to 100 | – |
| COc1cc(N2CCN(C(=O)CN3CCC(c4ccc(NC5CCC(=O)NC5=O)cc4F)CC3)CC2)ccc1Nc1ncc(Cl)c(Nc2ccccc2)n1 (stereo not drawn) [Compound T-04] | 100 to 1000 | ≥ 1000 | 10 to 100 | – |
| COc1cc(N2CCN(C(=O)CN3CCC(c4ccc(NC5CCC(=O)NC5=O)cc4)CC3)CC2)ccc1Nc1ncc(Cl)c(Nc2cccc(F)c2)n1 (stereo not drawn) [Compound T-09] | ≥ 1000 | ≥ 1000 | 10 to 100 | – |
| COc1cc(N2CCN(C(=O)CN3CCC(c4ccc5c(N6CCC(=O)NC6=O)nn(C)c5c4)CC3)CC2)ccc1Nc1ncc(Cl)c(Nc2ccccc2)n1 [Compound T-14] | ≥ 1000 | ≥ 1000 | 10 to 100 | – |
| COc1cc(N2CCN(C(=O)CN3CCC(c4ccc(NC5CCC(=O)NC5=O)cc4)CC3)CC2)ccc1Nc1ncc(C(F)(F)F)c(Nc2ccccc2P(C)(C)=O)n1 (stereo not drawn) [Compound T-46] | ≥ 1000 | 100 to 1000 | 10 to 100 | – |
| COc1cc(N2CCN(C(=O)CN3CCC(c4ccc(NC5CCC(=O)NC5=O)cc4)CC3)CC2)ccc1Nc1ncc(C(F)(F)F)c(Nc2ccc(F)cc2)n1 (stereo not drawn) [Compound T-51] | ≥ 1000 | – | 10 to 100 | IC50 [2]: ≥ 1000 nM |
| COc1cc(N2CCN(C(=O)CN3CCC(c4ccc(NC5CCC(=O)NC5=O)cc4)CC3)CC2)ccc1Nc1ncc(C(F)(F)F)c(Nc2ccc(F)cc2)n1 (stereo not drawn) [Compound T-52] | – | – | – | IC50 [1]: ≥ 1000 nM; IC50 [2]: 100 to 1000 nM; IC50 [3]: 10 to 100 nM |
| COc1cc(N2CCN(C(=O)CN3CCC(c4ccc(NC5CCC(=O)NC5=O)cc4)CC3)CC2)c(C)cc1Nc1ncc(C(F)(F)F)c(Nc2ccccc2C(C)=O)n1 (stereo not drawn) [Compound T-58] | 100 to 1000 | 100 to 1000 | 10 to 100 | – |
| COc1cc(N2CCN(C(=O)CN3CCC(c4ccc(NC5CCC(=O)NC5=O)cc4)CC3)CC2)c(C)cc1Nc1ncc(Br)c(Nc2ccccc2C(C)=O)n1 (stereo not drawn) [Compound T-59] | 100 to 1000 | 100 to 1000 | 10 to 100 | – |
| COc1cc(C2CCN(C(=O)CN3CCC(c4ccc(NC5CCC(=O)NC5=O)cc4)CC3)CC2)ccc1Nc1ncc(Cl)c(Nc2ccccc2C(C)=O)n1 (stereo not drawn) [Compound T-69] | – | – | – | IC50 [1]: 100 to 1000 nM; IC50 [2]: 100 to 1000 nM; IC50 [3]: 100 to 1000 nM |
| COc1cc(N2CCN(C(=O)CN3CCN(c4ccc(NC5CCC(=O)NC5=O)cc4)CC3)CC2)ccc1Nc1ncc(Cl)c(Nc2ccccc2C(C)=O)n1 (stereo not drawn) [Compound T-82] | ≥ 1000 | ≥ 1000 | 100 to 1000 | – |
| COc1cc(N2CCN(C(=O)CN3CCC(c4ccc(NC5CCC(=O)NC5=O)nc4)CC3)CC2)ccc1Nc1ncc(Cl)c(Nc2ccccc2C(C)=O)n1 (stereo not drawn) [Compound T-100] | 100 to 1000 | 100 to 1000 | 100 to 1000 | – |
| COc1cc(N2CCN(C(=O)CN3CCN(c4ccc5c(c4)CN(C4CCC(=O)NC4=O)C5=O)CC3)CC2)ccc1Nc1ncc(Cl)c(Nc2ccccc2C(C)=O)n1 (stereo not drawn) [Compound T-109] | ≥ 1000 | ≥ 1000 | 100 to 1000 | – |
| COc1cc(N2CCN(C(=O)CN3CCC(c4ccc(NC5CCC(=O)NC5=O)cc4)CC3)CC2)c(C)cc1Nc1ncc(Cl)c(Nc2ccccc2)n1 (stereo not drawn) [Compound T-122] | 100 to 1000 | 100 to 1000 | 100 to 1000 | – |
| COc1cc(N2CCN(C(=O)CN3CCC(c4ccc(NC5CCC(=O)NC5=O)cc4)CC3)C(C)C2)ccc1Nc1ncc(Cl)c(Nc2ccccc2)n1 (stereo not drawn) [Compound T-124] | ≥ 1000 | ≥ 1000 | 100 to 1000 | – |
| COc1cc(N2CCN(CCCN3CCC(c4ccc(NC5CCC(=O)NC5=O)cc4)CC3)CC2)ccc1Nc1ncc(Cl)c(Nc2ccccc2C(C)=O)n1 (stereo not drawn) [Compound T-183] | – | – | 100 to 1000 | – |

| SMILES | IC50 ([1]; Homo sapiens, PC-9, 72 h) [nM] | IC50 ([2]; Homo sapiens, HCC827, 72 h) [nM] | IC50 ([3]; Homo sapiens, NCI-H1975, 72 h) [nM] | further results |
| --- | --- | --- | --- | --- |
| COC(=O)c1ccccc1Nc1nc(Nc2ccc(N3CCN(C(=O)CN4CCC(c5ccc(NC6CCC(=O)NC6=O)cc5)CC4)CC3)cc2OC)ncc1Cl (stereo not drawn) [Compound T-194] | – | – | 100 to 1000 | – |
| COc1cc(N2CCN(C(=O)CN3CCN(c4ccc5c(c4)C(=O)N(C4CCC(=O)NC4=O)C5=O)CC3)CC2)ccc1Nc1ncc(Cl)c(Nc2ccccc2C(C)=O)n1 (stereo not drawn) [Compound T-201] | – | – | 100 to 1000 | – |
| COc1cc(N2CCN(C(=O)C3CCN(CC4CCN(c5ccc6c(c5)C(=O)N(C5CCC(=O)NC5=O)C6=O)CC4)CC3)CC2)ccc1Nc1ncc(Cl)c(Nc2ccccc2C(C)=O)n1 (stereo not drawn) [Compound T-204] | – | – | 100 to 1000 | – |
| COc1nc(N2CCN(C(=O)CN3CCC(c4ccc(NC5CCC(=O)NC5=O)cc4)CC3)CC2)ccc1Nc1ncc(Cl)c(Nc2ccccc2C(C)=O)n1 (stereo not drawn) [Compound T-208] | – | – | 100 to 1000 | – |
| COc1cc(N2CCN(C(=O)CNc3ccc4c(c3)C(=O)N(C3CCC(=O)NC3=O)C4=O)CC2)ccc1Nc1ncc(Cl)c(Nc2ccccc2C(C)=O)n1 (stereo not drawn) [Compound T-230] | – | – | 100 to 1000 | – |
| COc1cc(N2CCN(CC(=O)NCCNc3cccc4c3C(=O)N(C3CCC(=O)NC3=O)C4=O)CC2)ccc1Nc1ncc(Cl)c(Nc2ccccc2C(C)=O)n1 (stereo not drawn) [Compound T-238] | – | – | 100 to 1000 | – |
| COc1cc(N2CCN(C(=O)CN3CCC(c4ccc5c(cnn5C5CCC(=O)NC5=O)c4)CC3)CC2)ccc1Nc1ncc(Cl)c(Nc2ccccc2)n1 (stereo not drawn) [Compound T-326] | – | – | 100 to 1000 | – |
| COC(=O)Nc1ccccc1Nc1nc(Nc2ccc(N3CCN(C(=O)CN4CCC(c5ccc(NC6CCC(=O)NC6=O)cc5)CC4)CC3)cc2OC)ncc1Cl (stereo not drawn) [Compound T-340] | – | – | 100 to 1000 | – |
| CCc1cc(Nc2ncc(Cl)c(Nc3ccccc3C(=O)NC)n2)c(OC)cc1N1CCN(C(=O)CN2CCC(c3ccc(NC4CCC(=O)NC4=O)cc3)CC2)CC1 (stereo not drawn) [Compound T-361] | – | – | 10 to 100 | – |
| CCc1cc(Nc2ncc(Br)c(Nc3ccccc3C(=O)NC)n2)c(OC)cc1N1CCN(C(=O)CN2CCC(c3ccc(NC4CCC(=O)NC4=O)cc3)CC2)CC1 (stereo not drawn) [Compound T-362] | – | – | 10 to 100 | – |
| CCc1cc(Nc2ncc(C(F)(F)F)c(Nc3ccccc3C(=O)NC)n2)c(OC)cc1N1CCN(C(=O)CN2CCC(c3ccc(NC4CCC(=O)NC4=O)cc3)CC2)CC1 (stereo not drawn) [Compound T-363] | – | – | 10 to 100 | – |
| CNC(=O)c1ccccc1Nc1nc(Nc2cc(C)c(N3CCN(C(=O)CN4CCN(c5ccc(NC6CCC(=O)NC6=O)cc5)CC4)CC3)cc2OC)ncc1Cl (stereo not drawn) [Compound T-364] | – | – | 10 to 100 | – |
| CCNC(=O)c1ccccc1Nc1nc(Nc2ccc(N3CCN(C(=O)CN4CCC(c5ccc(NC6CCC(=O)NC6=O)cc5)CC4)CC3)cc2OC)ncc1Br (stereo not drawn) [Compound T-374] | – | – | 10 to 100 | – |
| CCc1cc(Nc2ncc(Cl)c(Nc3ccccc3C(=O)NC)n2)c(OC)cc1N1CCN(C(=O)CN2CCC(c3ccc(NC4CCC(=O)NC4=O)cc3)CC2)CC1 (stereo not drawn) [Compound T-375] | – | – | – | IC50 [3]: 10 to 100 nM |
| CNC(=O)c1ccccc1Nc1nc(Nc2cc(CC(F)(F)F)c(N3CCN(C(=O)CN4CCC(c5ccc(NC6CCC(=O)NC6=O)cc5)CC4)CC3)cc2OC)ncc1Cl (stereo not drawn) [Compound T-377] | – | – | 10 to 100 | – |
| CCc1cc(Nc2ncc(Cl)c(Nc3ccccc3C(C)=O)n2)c(OC)cc1N1CCN(C(=O)CN2CCC(c3ccc(NC4CCC(=O)NC4=O)cc3)CC2)CC1 (stereo not drawn) [Compound T-378] | – | – | 10 to 100 | – |
| CNC(=O)c1ccccc1Nc1nc(Nc2cc(CC(F)(F)F)c(N3CCN(C(=O)CN4CCC(c5ccc(NC6CCC(=O)NC6=O)cc5)CC4)CC3)cc2OC)ncc1Br (stereo not drawn) [Compound T-381] | – | – | 10 to 100 | – |
